Holding throughout (assay type): in vivo
Test [1] relates to Pseudoperonospora cubensis. In words: Cucumber Downy Mildew foliar spray test, inoculated one day after treatment. Particulars: applied to foliage at 200 ppm, cucumber plants, read-out: Activity against Fungal Diseases PSPECU (percent disease control). How it is done: Fungicide activity data are the level (in percent) at which the given disease was controlled when the given compound was applied to the foliage of the plants at 200 ppm. In a few cases (noted in the table) the compound was applied to the plants at 25 ppm or 3 ppm. The plants were inoculated with the fungus one day after treatment. ***=80-100% control; **=50-79% control; *=0-49% control. […] The activity of the compounds as effective fungicides was determined by applying the compounds to plants and observing control of fungal disease. […] All plants were inoculated with spores of the fungus the day after treatment, then incubated in an environment conducive to disease development. Disease severity was evaluated 4 to 25 days (d) later, depending on the speed of disease development. The following experiments were performed in the laboratory to determine the fungicidal efficacy of the compounds of the invention. Cucumber Downy Mildew (causal agent Pseudoperonospora cubensis; Bayer code […]): Cucumber plants (variety 'Bush Champion' or 'Bush Pickle Hybrid') were grown from seed in a soil-less peat-based potting mixture (Metromix) until the first true leaf was 20-80% expanded. Each pot contained 1 seedling. These plants were sprayed until wet with the formulated test compound. On the following day, the leaves were inoculated with an aqueous suspension of downy mildew sporangia and the plants were kept in high humidity for one day to permit sporangia to germinate and infect the leaf. The plants were then incubated in a growth chamber until disease developed on untreated control plants. […] The effectiveness of the test compounds at controlling disease when sprayed on leaves was determined by assessing the severity of disease on treated plants, then converting the severity to percent control based on the level of disease on untreated, inoculated plants.

The next test concerns Pyricularia oryzae. In words: whole plant or invertebrate. Particulars: foliar, read-out: Activity against Fungal Diseases PYRIOR (percent disease control).
In another test the test system is Septoria tritici. The experiment in a line: Septoria Blotch of Wheat foliar spray test, inoculated one day after treatment. The note with it: Zymoseptoria tritici, wheat plants, read-out: Activity against Fungal Diseases SEPTTR (percent disease control); for pest or weed control at 200 ppm: applied to foliage at 200 ppm; for pest or weed control at 25 ppm: Tested at 25 ppm. As for the experimental part: (§1) Fungicide activity data are the level (in percent) at which the given disease was controlled when the given compound was applied to the foliage of the plants at 200 ppm. In a few cases (noted in the table) the compound was applied to the plants at 25 ppm or 3 ppm. The plants were inoculated with the fungus one day after treatment. ***=80-100% control; **=50-79% control; *=0-49% control. […] The activity of the compounds as effective fungicides was determined by applying the compounds to plants and observing control of fungal disease. […] All plants were inoculated with spores of the fungus the day after treatment, then incubated in an environment conducive to disease development. Disease severity was evaluated 4 to 25 days (d) later, depending on the speed of disease development. The following experiments were performed in the laboratory to determine the fungicidal efficacy of the compounds of the invention. […] Each pot contained 3-10 seedlings. These plants were sprayed until wet with the formulated test compound. On the following day, the leaves were inoculated with an aqueous spore suspension of Septoria tritici and the plants were kept in high humidity (one day in a dark dew chamber followed by two days in a lighted dew chamber) to permit spores to germinate and infect the leaf. The plants were then transferred to a greenhouse until disease developed on untreated control plants. […] The effectiveness of the test compounds at controlling disease when sprayed on leaves was determined by assessing the severity of disease on treated plants, then converting the severity to percent control based on the level of disease on untreated, inoculated plants.

Test [2] concerns Puccinia recondita tritici. The experiment in a line: Leaf Rust of Wheat foliar spray test, inoculated one day after treatment. Particulars: applied to foliage at 200 ppm, wheat plants, read-out: Activity against Fungal Diseases PUCCRT (percent disease control). As for the experimental part: as §1, with “3-8” for “3-10”, “compounds.” for “compound.”, “Puccinia recondita” for “Septoria”, “overnight” for “(one day in a dark dew chamber followed by two days in a lighted dew chamber)”

With `CC(Cc1ccc(Oc2cc(C(F)(F)F)ccn2)cc1)Nc1ncnc2scnc12` (stereo not drawn) [Compound 18, {1-methyl-2-[4-(4-trifluoromethylpyridin-2-yloxy)-phenyl]-ethyl}-thiazolo[5,4-d]pyrimidin-7-ylamine], the pest or weed control at 200 ppm (in test [1]; with Pyricularia oryzae; in the test on Septoria tritici; in test [2]) was 80 to 100% in each case.

Regarding `FC(F)(F)c1cc(Oc2ccc(CCNc3ncnc4scnc34)cc2)ncn1` [Compound 52, thiazolo[5,4-d]pyrimidin-7-yl-{2-[4-(6-trifluoromethylpyrimidin-4-yloxy)-phenyl]-ethyl}-amine], the pest or weed control at 200 ppm (in test [1]; in the test with Pyricularia oryzae; in test [2]) was 80 to 100% throughout. The pest or weed control at 25 ppm in the test on Septoria tritici was 80 to 100%.

In the case of `Fc1cc(CCNc2ncnc3scnc23)ccc1Oc1cc(C(F)(F)F)ccn1` [Compound 41, {2-[3-fluoro-4-(4-trifluoromethylpyridin-2-yloxy)-phenyl]-ethyl}-thiazolo[5,4-d]pyrimidin-7-ylamine], the pest or weed control at 200 ppm (in test [1]; in the test with Pyricularia oryzae; with Septoria tritici; in test [2]) was 80 to 100% throughout.

Turning to `COC(=O)c1cnc(Oc2ccc(CCNc3ncnc4scnc34)cc2)cc1C(F)(F)F` [Compound 16, 6-{4-[2-(thiazolo[5,4-d]pyrimidin-7-ylamino)-ethyl]-phenoxy}-4-trifluoromethyl-nicotinic acid methyl ester], the pest or weed control at 200 ppm is 80 to 100% in test [1], 50 to 79% in the test with Pyricularia oryzae, 50 to 79% with Septoria tritici and 80 to 100% in test [2].

With `COc1cc(CCNc2ncnc3scnc23)ccc1Oc1ccc(C(F)(F)F)cc1F` [Compound 30, {2-[4-(2-fluoro-4-trifluoromethylphenoxy)-3-methoxyphenyl]-ethyl}-thiazolo[5,4-d]pyrimidin-7-ylamine], the pest or weed control at 200 ppm (in test [1]; in the test with Pyricularia oryzae; in test [2]) was 80 to 100% throughout. The pest or weed control at 25 ppm in the test on Septoria tritici was 80 to 100%.

In the case of `Fc1cc(C(F)(F)F)cnc1Oc1ccc(CCNc2ncnc3scnc23)cc1` [Compound 61, {2-[4-(3-fluoro-5-trifluoromethylpyridin-2-yloxy)-phenyl]-ethyl}-thiazolo[5,4-d]pyrimidin-7-ylamine], the pest or weed control at 200 ppm (in test [1]; in the test with Pyricularia oryzae; in test [2]) was 80 to 100% throughout. Further, in the test with Septoria tritici, the pest or weed control at 25 ppm lay within 50 to 79%.

`FC(F)(F)c1cccnc1Oc1ccc(CCNc2ncnc3scnc23)cc1` [Compound 8, thiazolo[5,4-d]pyrimidin-7-yl-{2-[4-(3-trifluoromethylpyridin-2-yloxy)-phenyl]-ethyl}-amine]: the pest or weed control at 200 ppm (in test [1]; in the test on Pyricularia oryzae; in the test on Septoria tritici; in test [2]) was 80 to 100% throughout.

Consider `Cc1cc(CCNc2ncnc3scnc23)ccc1Oc1c(Cl)cnc(C(F)(F)F)c1Cl` [Compound 49, {2-[4-(3,5-dichloro-2-trifluoromethylpyridin-4-yloxy)-3-methylphenyl]-ethyl}-thiazolo[5,4-d]pyrimidin-7-ylamine], for which the pest or weed control at 200 ppm in test [1] fell in the range of 50 to 79%; with Pyricularia oryzae it was 80 to 100%; in test [2] it was 50 to 79%. For the same molecule, the pest or weed control at 25 ppm with Septoria tritici fell in the range of 0 to 49%.

Take `Cc1cc(Oc2cc(C(F)(F)F)ccn2)ccc1CCNc1ncnc2scnc12` [Compound 59, {2-[2-methyl-4-(4-trifluoromethylpyridin-2-yloxy)-phenyl]-ethyl}-thiazolo[5,4-d]pyrimidin-7-ylamine]: the pest or weed control at 200 ppm (in test [1]; in the test on Pyricularia oryzae; in the test on Septoria tritici; in test [2]) was 80 to 100% each time.

Regarding `CC(Nc1ncnc2scnc12)c1ccc(Oc2cc(C(F)(F)F)ccn2)cc1` (stereo not drawn) [Compound 35, thiazolo[5,4-d]pyrimidin-7-yl-{1-[4-(4-trifluoromethylpyridin-2-yloxy)-phenyl]-ethyl}-amine], the pest or weed control at 200 ppm (in test [1]; with Pyricularia oryzae; in the test on Septoria tritici; in test [2]) was 80 to 100% throughout.

Regarding `FC(F)(F)c1ccncc1Oc1ccc(CCNc2ncnc3scnc23)cc1` [Compound 43, thiazolo[5,4-d]pyrimidin-7-yl-{2-[4-(4-trifluoromethylpyridin-3-yloxy)-phenyl]-ethyl}-amine], the pest or weed control at 200 ppm (in test [1]; in the test with Pyricularia oryzae; in the test with Septoria tritici; in test [2]) was 80 to 100% each time.

For the molecule `Cc1cc(CCNc2ncnc3scnc23)ccc1Oc1nc(C(F)(F)F)c(Cl)s1` [Compound 46, {2-[4-(5-chloro-4-trifluoromethylthiazol-2-yloxy)-3-methylphenyl]-ethyl}-thiazolo[5,4-d]pyrimidin-7-ylamine], the pest or weed control at 200 ppm (in test [1]; with Pyricularia oryzae; in the test on Septoria tritici; in test [2]) was 80 to 100% each time.

With `FC(F)(F)c1ccnc(Oc2ccc(CCNc3ncnc4scnc34)cc2)c1` [Compound 7, thiazolo[5,4-d]pyrimidin-7-yl-{2-[4-(4-trifluoromethylpyridin-2-yloxy)-phenyl]-ethyl}-amine], the pest or weed control at 200 ppm (in test [1]; with Pyricularia oryzae; in the test with Septoria tritici; in test [2]) was 80 to 100% each time.

Regarding `Cc1cc(CCNc2ncnc3scnc23)ccc1Oc1cc(C(F)(F)F)ncn1` [Compound 53, {2-[3-methyl-4-(6-trifluoromethylpyrimidin-4-yloxy)-phenyl]-ethyl}-thiazolo[5,4-d]pyrimidin-7-ylamine], the pest or weed control at 200 ppm (in test [1]; with Pyricularia oryzae; in test [2]) was 80 to 100% in each case. For the same molecule, the pest or weed control at 25 ppm in the test with Septoria tritici lay in the range of 80 to 100%.

Regarding `Fc1cnc(Oc2ccc(CCNc3ncnc4scnc34)cc2)c(F)c1C(F)(F)F` [Compound 36, {2-[4-(3,5-difluoro-4-trifluoromethylpyridin-2-yloxy)-phenyl]-ethyl}-thiazolo[5,4-d]pyrimidin-7-ylamine], the pest or weed control at 200 ppm (in test [1]; in the test on Pyricularia oryzae; in the test with Septoria tritici; in test [2]) was 80 to 100% each time.

For the origin of these results see US8921382B2, “Thiazolo[5,4-d] pyrimidines and their use as agrochemicals” (Dow AgroSciences, LLC., priority 2010, dated 2014).
